From US20100226881A1, “PYRAZOLO[1,5-a]PYRIDINES AND THEIR USE IN CANCER THERAPY” (Auckland Uniservices Limited, priority 2007, published 2010)
Where a name gives a salt, the structure may show the parent alone. Read-outs that look alike come from different tables or passages of the source.

Experiments:
p110δ/p85 = p110δ/p85 (Homo sapiens, UniProt O00329); assay: Inhibition of isolated enzyme, PI 3-kinase p110δ/p85; type: biochemical; settings: recombinant enzyme, 100 μM ATP, average of two experiments
Chain of p110δ/p85 (O00329 whole entry, species assumed): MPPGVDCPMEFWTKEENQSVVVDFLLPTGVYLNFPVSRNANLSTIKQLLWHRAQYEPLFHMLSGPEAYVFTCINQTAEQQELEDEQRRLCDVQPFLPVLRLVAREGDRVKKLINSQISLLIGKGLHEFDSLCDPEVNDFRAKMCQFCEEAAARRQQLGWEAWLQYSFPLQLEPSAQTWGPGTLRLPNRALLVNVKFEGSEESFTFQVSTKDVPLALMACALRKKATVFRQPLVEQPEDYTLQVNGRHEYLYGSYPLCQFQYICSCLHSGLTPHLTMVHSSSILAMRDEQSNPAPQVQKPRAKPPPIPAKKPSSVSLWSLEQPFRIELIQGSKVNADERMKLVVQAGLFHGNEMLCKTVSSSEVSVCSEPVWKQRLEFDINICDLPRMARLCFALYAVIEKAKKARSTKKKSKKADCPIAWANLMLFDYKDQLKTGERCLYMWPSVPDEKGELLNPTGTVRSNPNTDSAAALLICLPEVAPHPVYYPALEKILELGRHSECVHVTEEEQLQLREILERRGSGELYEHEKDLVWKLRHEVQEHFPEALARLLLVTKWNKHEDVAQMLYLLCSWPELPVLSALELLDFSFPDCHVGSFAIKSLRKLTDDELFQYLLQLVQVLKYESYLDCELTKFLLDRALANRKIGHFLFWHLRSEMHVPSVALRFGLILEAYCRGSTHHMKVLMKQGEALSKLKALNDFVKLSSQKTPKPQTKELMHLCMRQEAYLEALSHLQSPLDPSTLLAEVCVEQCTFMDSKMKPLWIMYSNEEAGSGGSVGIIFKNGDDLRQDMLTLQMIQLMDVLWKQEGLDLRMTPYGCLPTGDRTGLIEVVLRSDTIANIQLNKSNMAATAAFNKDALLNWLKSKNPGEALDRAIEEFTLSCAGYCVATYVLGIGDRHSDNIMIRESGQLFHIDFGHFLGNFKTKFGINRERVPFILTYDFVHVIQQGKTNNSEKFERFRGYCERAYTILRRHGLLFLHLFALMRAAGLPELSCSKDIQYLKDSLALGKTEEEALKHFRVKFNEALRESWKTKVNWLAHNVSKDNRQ
Chain of p110δ/p85 (P27986 whole entry partner, species assumed): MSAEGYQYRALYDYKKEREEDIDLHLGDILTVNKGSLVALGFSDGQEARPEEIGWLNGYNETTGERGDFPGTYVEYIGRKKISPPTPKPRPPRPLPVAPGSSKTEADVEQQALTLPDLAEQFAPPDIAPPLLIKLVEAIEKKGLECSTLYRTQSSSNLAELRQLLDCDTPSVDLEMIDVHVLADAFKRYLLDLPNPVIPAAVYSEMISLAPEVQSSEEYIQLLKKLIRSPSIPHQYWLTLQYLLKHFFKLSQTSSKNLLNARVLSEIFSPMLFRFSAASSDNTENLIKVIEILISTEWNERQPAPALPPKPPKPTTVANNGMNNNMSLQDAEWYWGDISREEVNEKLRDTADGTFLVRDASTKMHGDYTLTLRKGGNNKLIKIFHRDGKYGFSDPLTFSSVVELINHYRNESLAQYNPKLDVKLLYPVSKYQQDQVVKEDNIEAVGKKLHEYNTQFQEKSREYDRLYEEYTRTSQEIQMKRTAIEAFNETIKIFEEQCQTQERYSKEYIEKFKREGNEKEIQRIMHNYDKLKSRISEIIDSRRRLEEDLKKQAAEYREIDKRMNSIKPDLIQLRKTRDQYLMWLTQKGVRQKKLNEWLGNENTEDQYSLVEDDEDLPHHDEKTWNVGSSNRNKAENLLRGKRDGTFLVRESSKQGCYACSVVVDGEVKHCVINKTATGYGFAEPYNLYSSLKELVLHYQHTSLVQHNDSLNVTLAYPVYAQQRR
Description: (§1) Compounds were evaluated for their ability to inhibit the Class I PI 3-kinase enzymes p110δ/p85, p110α/p85 and p110β/p85. Reaction mixtures comprising 0.1 μg of recombinant enzyme, 10 μg of L-α-phosphatidylinositol, the compound (DMSO only or DMSO+compound to a final concentration of 1%), 2× Lipid Kinase Buffer (40 mM Tris-HCl pH 7.4, 200 mM NaCl, 1 mM EDTA) were activated by the addition of an ATP mix (5 mM MgCl2, 100 μM ATP, 0.1 μL [γ^33P]ATP). […] Firstly, 200 μL of chloroform/methanol (1:1) was added, the biphasic reactions mixed and centrifuged briefly, and the inorganic phase was removed and discarded.

NZB5 = assay: Cellular growth inhibition (3H-thymidine), NZB5; type: cell-based; settings: Homo sapiens, five days, 3H-thymidine incorporation, maximum 20 μM
Description: (§2) The compounds were evaluated against two early passage human cell lines NZB5 and NZOV9, whose development and culture have been described [Marshall et al, Oncol. Res. 2004, 14, 297]. The cells were grown in ITS medium (α-modified minimal essential medium supplemented insulin, transferrin, selenite and 5% fetal bovine serum) and grown on 96-well tissue culture plates under an atmosphere of 5% O2, 5% CO2 and 90% N2. Individual wells contained 500-1000 cells (depending on the growth rate) in a volume of 150 μL. Compounds were added at 10-fold concentration steps to a maximum of 20 μM and plates were incubated for five days, with ^3H-thymidine being added over the last 6 h. Cells were harvested and incorporated radioactivity measured. Duplicate samples were analyzed for each compound dose with multiple control samples. Data were fitted by a least-squares method to an exponential of the form y=y0+ae^−bx, where y is the radioactivity (corrected for background and normalized to 100% of the control) x is the radiation dose, and y0, a and b are variables, and the IC50 value defined as the compound concentration reducing ^3H-thymidine levels by 50%.

NZOV9 = assay: Cellular growth inhibition (3H-thymidine), NZOV9; type: cell-based; settings: Homo sapiens, five days, 3H-thymidine incorporation, maximum 20 μM
Description: as §2

p110α/p85 = p110α/p85 (Homo sapiens, UniProt P42336); assay: Inhibition of isolated enzyme, PI 3-kinase p110α/p85
Chain of p110α/p85 (P42336 whole entry, species assumed): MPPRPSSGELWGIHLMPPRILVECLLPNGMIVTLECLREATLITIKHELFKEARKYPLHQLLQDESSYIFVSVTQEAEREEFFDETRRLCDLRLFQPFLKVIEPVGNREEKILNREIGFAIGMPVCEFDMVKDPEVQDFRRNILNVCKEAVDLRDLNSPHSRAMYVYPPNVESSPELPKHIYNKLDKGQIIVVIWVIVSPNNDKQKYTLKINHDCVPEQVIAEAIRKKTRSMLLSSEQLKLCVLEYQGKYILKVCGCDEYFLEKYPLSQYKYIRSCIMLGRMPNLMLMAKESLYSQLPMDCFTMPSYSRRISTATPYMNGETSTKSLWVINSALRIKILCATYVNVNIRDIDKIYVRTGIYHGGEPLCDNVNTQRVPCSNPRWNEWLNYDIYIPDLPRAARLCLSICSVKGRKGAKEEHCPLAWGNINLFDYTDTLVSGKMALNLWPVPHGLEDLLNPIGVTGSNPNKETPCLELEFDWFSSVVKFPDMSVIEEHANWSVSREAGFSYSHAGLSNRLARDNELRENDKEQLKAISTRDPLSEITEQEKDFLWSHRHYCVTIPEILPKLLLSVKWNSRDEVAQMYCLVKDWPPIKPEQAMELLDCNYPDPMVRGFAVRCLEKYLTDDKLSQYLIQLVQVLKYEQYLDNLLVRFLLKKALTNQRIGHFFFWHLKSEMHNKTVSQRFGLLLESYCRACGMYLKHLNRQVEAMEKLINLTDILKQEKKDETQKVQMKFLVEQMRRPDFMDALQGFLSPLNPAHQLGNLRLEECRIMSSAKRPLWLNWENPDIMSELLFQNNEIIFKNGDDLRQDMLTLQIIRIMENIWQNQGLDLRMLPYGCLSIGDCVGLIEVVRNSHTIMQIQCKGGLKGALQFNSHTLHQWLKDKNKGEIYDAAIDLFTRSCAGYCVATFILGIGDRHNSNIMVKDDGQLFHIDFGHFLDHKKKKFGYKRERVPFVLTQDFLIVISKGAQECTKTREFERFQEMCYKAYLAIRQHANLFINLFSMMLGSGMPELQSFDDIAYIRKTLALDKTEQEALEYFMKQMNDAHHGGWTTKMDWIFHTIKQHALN
Chain of p110α/p85 (P27986 whole entry partner, species assumed): as the sequence (P27986 whole entry partner, species assumed) above

p110β/p85 = p110β/p85 (Homo sapiens, UniProt P42338); assay: Inhibition of isolated enzyme, PI 3-kinase p110β/p85; type: biochemical; settings: recombinant enzyme, 100 μM ATP, average of two experiments
Chain of p110β/p85 (P42338 whole entry, species assumed): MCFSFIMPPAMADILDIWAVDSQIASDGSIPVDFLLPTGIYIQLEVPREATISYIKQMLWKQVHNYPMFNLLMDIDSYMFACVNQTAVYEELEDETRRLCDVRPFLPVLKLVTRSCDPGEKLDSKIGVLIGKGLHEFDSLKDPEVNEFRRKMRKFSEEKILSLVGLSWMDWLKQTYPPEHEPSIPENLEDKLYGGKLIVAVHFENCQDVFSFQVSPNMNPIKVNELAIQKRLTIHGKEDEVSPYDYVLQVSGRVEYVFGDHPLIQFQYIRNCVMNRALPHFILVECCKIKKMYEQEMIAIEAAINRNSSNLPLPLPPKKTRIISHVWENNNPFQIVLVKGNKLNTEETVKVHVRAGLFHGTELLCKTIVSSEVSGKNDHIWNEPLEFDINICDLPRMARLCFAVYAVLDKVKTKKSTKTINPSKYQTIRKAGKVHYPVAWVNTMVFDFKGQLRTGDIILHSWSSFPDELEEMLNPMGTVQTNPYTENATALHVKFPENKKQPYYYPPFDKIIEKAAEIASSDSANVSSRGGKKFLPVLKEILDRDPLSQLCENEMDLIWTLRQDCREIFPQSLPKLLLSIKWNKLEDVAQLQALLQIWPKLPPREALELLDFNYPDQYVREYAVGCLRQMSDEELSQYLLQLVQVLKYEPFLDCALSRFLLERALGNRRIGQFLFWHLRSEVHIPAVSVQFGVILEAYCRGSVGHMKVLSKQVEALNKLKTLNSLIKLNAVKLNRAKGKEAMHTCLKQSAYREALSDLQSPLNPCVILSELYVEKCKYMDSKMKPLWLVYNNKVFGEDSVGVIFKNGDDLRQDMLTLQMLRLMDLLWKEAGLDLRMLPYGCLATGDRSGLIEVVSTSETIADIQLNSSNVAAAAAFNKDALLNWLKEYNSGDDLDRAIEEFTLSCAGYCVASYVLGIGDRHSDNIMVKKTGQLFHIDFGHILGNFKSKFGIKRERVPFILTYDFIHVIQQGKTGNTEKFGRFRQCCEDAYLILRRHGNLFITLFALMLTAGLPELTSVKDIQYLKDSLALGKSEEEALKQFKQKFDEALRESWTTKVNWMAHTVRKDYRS
Chain of p110β/p85 (P27986 whole entry partner, species assumed): as the sequence (P27986 whole entry partner, species assumed) above
Description: as §1

[1] = read-out: IC50 (nM) p110α, recombinant enzyme, 100 μM ATP, average of two experiments

IC50 (p110δ/p85) [nM]	IC50 (p110α/p85; [1]) [nM]	IC50 (p110β/p85) [nM]	SMILES	IC50 (NZB5) [µM]	IC50 (NZOV9) [µM]	IC50 (p110α/p85) [nM]
43	1.4	47	C#Cc1ccn2ncc(C=NN(C)S(=O)(=O)c3cc([N+](=O)[O-])ccc3C)c2c1 [E18, N′-((5-Ethynylpyrazolo[1,5-a]pyridin-3-yl)methylene)-N,2-dimethyl-5-nitrobenzenesulfonohydrazide]	0.16	0.11	
40	1.8	300	CC(C)c1ccc([N+](=O)[O-])cc1S(=O)(=O)N(C)N=Cc1cnn2ccc(C#N)cc12 [E33, N′-((5-Cyanopyrazolo[1,5-a]pyridin-3-yl)methylene)-2-isopropyl-N-methyl-5-nitrobenzenesulfonohydrazide]	0.19	0.26	
130	30	200	Cc1ccc([N+](=O)[O-])cc1S(=O)(=O)N(CCN(C)C)N=Cc1cnn2ccc(C#N)cc12 [E46, N′-((5-Cyanopyrazolo[1,5-a]pyridin-3-yl)methylene)-N-(2-(dimethylamino)ethyl)-2-methyl-5-nitrobenzenesulfonohydrazide]	0.37	0.4	
26	9	> 1000	CN(N=Cc1cnn2ccc(C#N)cc12)S(=O)(=O)c1cc([N+](=O)[O-])ccc1NCCN1CCOCC1 [E58, N′-((5-Cyanopyrazolo[1,5-a]pyridin-3-yl)methylene)-N-methyl-2-(2-morpholinoethylamino)-5-nitrobenzenesulfonohydrazide hydrochloride]	9.4	> 20	
320	55	> 1000	CN(N=Cc1cnn2ccc(C#N)cc12)S(=O)(=O)c1cc([N+](=O)[O-])ccc1NCCc1c[nH]cn1 [E63, 2-(2-(1H-Imidazol-4-yl)-ethylamino)-N′-((5-cyanopyrazolo[1,5-a]pyridin-3-yl)methylene)-N-methyl-5-nitrobenzenesulfonohydrazide hydrochloride]	0.82	0.61	
440	9.6	580	CN(N=Cc1cnn2ccc(C#N)cc12)S(=O)(=O)c1cc([N+](=O)[O-])ccc1NCc1cccnc1 [E65, N′-((5-Cyanopyrazolo[1,5-a]pyridin-3-yl)methylene)-N-methyl-5-nitro-2-(pyridin-3-ylmethylamino)benzenesulfonohydrazide hydrochloride]	1.1	0.68	
200		5600	CN(N=Cc1cnn2ccc(C#N)cc12)S(=O)(=O)c1cc([N+](=O)[O-])ccc1OCc1ccccn1 [E71, N′-((5-Cyanopyrazolo[1,5-a]pyridin-3-yl)methylene)-N-methyl-5-nitro-2-(pyridin-2-ylmethoxy)benzenesulfonohydrazide hydrochloride]	1.3	0.66	5.8

Second part, the compound before the results:

SMILES	IC50 (p110δ/p85) [nM]	IC50 (p110α/p85; [1]) [nM]	IC50 (p110β/p85) [nM]	IC50 (NZB5) [µM]	IC50 (NZOV9) [µM]	IC50 (p110α/p85) [nM]
Cc1ccc([N+](=O)[O-])cc1S(=O)(=O)N(C)N=Cc1cnn2ccccc12 [E1, N,2-Dimethyl-5-nitro-N′-(pyrazolo[1,5-a]pyridin-3-ylmethylene)benzene-sulfonohydrazide]	3400	190		0.47	0.66	
Cc1ccn2ncc(C=NN(C)S(=O)(=O)c3cc([N+](=O)[O-])ccc3C)c2c1 [E2, N,2-Dimethyl-N′-((5-methylpyrazolo[1,5-a]pyridin-3-yl)methylene)-5-nitro-benzenesulfonohydrazide]	640	110	> 1000	0.05	0.07	
Cc1ccn2nc(C)c(C=NN(C)S(=O)(=O)c3cc([N+](=O)[O-])ccc3C)c2c1 [E4, N′-((2,5-Dimethylpyrazolo[1,5-a]pyridin-3-yl)methylene)-N,2-dimethyl-5-nitrobenzenesulfonohydrazide]	> 1000	870	> 1000	15	20	
COC(=O)c1ccn2ncc(C=NN(C)S(=O)(=O)c3cc([N+](=O)[O-])ccc3C)c2c1 [E6, Methyl 3-((2-methyl-2-(2-methyl-5-nitrophenylsulfonyl)hydrazono)methyl)pyrazolo[1,5-a]pyridine-5-carboxylate]	790	260	> 1000	1.8	1.5	
COc1ccn2ncc(C=NN(C)S(=O)(=O)c3cc([N+](=O)[O-])ccc3C)c2c1 [E9, N′-((5-Methoxypyrazolo[1,5-a]pyridin-3-yl)methylene)-N,2-dimethyl-5-nitrobenzenesulfonohydrazide]	> 1000	230	> 1000	0.94	0.52	
Cc1ccc([N+](=O)[O-])cc1S(=O)(=O)N(C)N=Cc1cnn2ccc(I)cc12 [E15, N′-((5-Iodopyrazolo[1,5-a]pyridin-3-yl)methylene)-N,2-dimethyl-5-nitro-benzenesulfonohydrazide]	240		720	0.04	0.05	23
Cc1ccc([N+](=O)[O-])cc1S(=O)(=O)N(C)N=Cc1cnn2ccc(C3CC3)cc12 [E17, N′-((5-cyclopropylpyrazolo[1,5-a]pyridin-3-yl)methylene)-N,2-dimethyl-5-nitrobenzenesulfonohydrazide]	> 1000	330	> 1000	0.74	0.67	
Cc1ccc(F)cc1S(=O)(=O)N(C)N=Cc1cnn2ccc(C#N)cc12 [E27, N′-((5-Cyanopyrazolo[1,5-a]pyridin-3-yl)methylene)-5-fluoro-N,2-dimethylbenzenesulfonohydrazide]	340	86	870	> 20	14	
CN(N=Cc1cnn2ccc(C#N)cc12)S(=O)(=O)c1cc([N+](=O)[O-])ccc1Cl [E34, 2-Chloro-N′-((5-cyanopyrazolo[1,5-a]pyridin-3-yl)methylene)-N-methyl-5-nitrobenzenesulfonohydrazide]				0.88	0.35	
Cc1ccc(C#N)cc1S(=O)(=O)N(CCO)N=Cc1cnn2ccc(C#N)cc12 [E40, 5-Cyano-N′-((5-cyanopyrazolo[1,5-a]pyridin-3-yl)methylene)-N-(2-hydroxyethyl)-2-methylbenzenesulfonohydrazide]	25	3	23	3.2	0.62	
Cc1ccc([N+](=O)[O-])cc1S(=O)(=O)NN=Cc1cnn2ccc(C#N)cc12 [E42, N′-((5-Cyanopyrazolo[1,5-a]pyridin-3-yl)methylene)-2-methyl-5-nitro-benzenesulfonohydrazide]	580	13	620	2.5	4.9	
Cc1ccc([N+](=O)[O-])cc1S(=O)(=O)N(CCN1CCOCC1)N=Cc1cnn2ccc(C#N)cc12 [E47, N′-((5-Cyanopyrazolo[1,5-a]pyridin-3-yl)methylene)-2-methyl-N-(2-morpholinoethyl)-5-nitrobenzenesulfonohydrazide]	10	4.5	230	0.51	0.55	
CN(C)c1ccc([N+](=O)[O-])cc1S(=O)(=O)N(C)N=Cc1cnn2ccc(Br)cc12 [E73, N′-((5-Bromopyrazolo[1,5-a]pyridin-3-yl)methylene)-2-(dimethylamino)-N-methyl-5-nitrobenzenesulfonohydrazide]	210	3.4	35	0.11	0.31	
CN(N=Cc1cnn2ccc(Br)cc12)S(=O)(=O)c1cc([N+](=O)[O-])ccc1OCCN1CCOCC1 [E74, N′-((5-Bromopyrazolo[1,5-a]pyridin-3-yl)methylene)-N-methyl-2-(2-morpholinoethoxy)-5-nitrobenzenesulfonohydrazide hydrochloride]	350	32	2900	0.27	0.55	
CN(C)CCN(C)c1ccc(C#N)cc1S(=O)(=O)N(C)N=Cc1cnn2ccc(C#N)cc12 [E77, 5-Cyano-N′-((5-cyanopyrazolo[1,5-a]pyridin-3-yl)methylene)-2-((2-(dimethylamino)ethyl)(methyl)amino)-N-methylbenzenesulfonohydrazide hydro-chloride]	380	10	360	0.06	0.05	
